According to patent US8735152B2, “Methods for inducing cell death in pluripotent stem cells and differentiated cells other than cardiac myocytes” (Daiichi Sankyo Company, Limited, priority 2009, dated 2014):

Tests used:
[1] = Saccharide concentration and osmotic pressure of hypertonic solutions (measured values); type: physicochemical
Method: When the hypertonic solution having an osmotic pressure of 370 mOsm/kg or higher is prepared by adding a saccharide to the culture medium, the method of the present invention is characterized in that the hypertonic solution contains the saccharide in 0.1-1 M (mol/L), preferably 0.1-0.6 M (mol/L). The relation between the concentration of saccharide (mol/L) and the osmotic pressure (mOsm/kg) can be approximated by a substantially straight line; a hypertonic solution containing 0.1 M saccharide corresponds to one having an osmotic pressure of approximately 370 mOsm/kg and a hypertonic solution containing 1 M saccharide corresponds to one having an osmotic pressure of approximately 1300-1600 mOsm/kg.
Hypertonic solutions were prepared using various saccharides and the relation between the saccharide concentration and the osmotic pressure is shown in the following table for typical saccharides.

[2] = test system: human embryonic stem cells; test: Cell death inducing effect on human embryonic stem cells (TMRM FACS, 5-day adherent culture); type: cell-based; settings: 0.45 M
Method: The human embryonic stem cells were obtained from Stem Cell Research Center, Institute for Frontier Medical Sciences, Kyoto University (ES cell center sponsored by the National Bio-Resource Project) (Suemori, H et al., Biochem. Biophys. Res. Commun., Vol. 345, 2006, pp. 926-932). The cells were cultured basically in accordance with the method described in this document. To be more specific, the human embryonic stem cells were cultured to maintain their undifferentiated state using mouse embryonic fibroblasts (MEF) that had been inactivated for growth by treatment with mitomycin C. The culture medium of F12/DMEM (1:1) (SIGMA; Product No. D6421), supplemented with 20% KO-SERUM (GIBCO), 1.6 mM L-glutamine, 0.1 mM non-essential amino acids (MEM), 0.1 mM β-mercaptoethanol (2-ME; Sigma), 100 IU/ml penicillin, 100 μg/ml streptomycin sulfate, and recombinant human basic fibroblast growth factor (bFGF; Reprotech) was used. Upon passaging, the cells were treated with 0.1% type III collagenase (Wortington) at 37° C. for 10 minutes to separate embryonic stem cell colonies. After passaging, the cells were dispersed with each other using TE (0.25% trypsin (GIBCO) and 1 mM EDTA) and in accordance with a published document (Watanabe, K. et al., Nat. Biotechnol., 2007, 25: 681-686, Epub 2007 May 27), 10 μM of a ROCK inhibitor (Y27632) was added to suppress cell death. At the same time, the mitochondria in the live cells were stained with 50 nM TMRM. Part of the stained cells were treated with an α-MEM culture medium containing 0.45 M mannitol (approximately equivalent to 720 mOsm/kg) for 2, 3 or 4 hours and three samples were prepared from these cells; the rest of the stained cells were treated with a mannitol-free α-MEM culture medium for 2 hours and a sample was prepared from these cells as a control. In the control, cells were aggregated with each other to make masses, so before FACS analysis, the treated groups and the control were given another treatment with trypsin and EDTA to disperse the cells. The cells treated with mannitol for 2, 3 or 4 hours and the control cells were analyzed by FACS for the level of mitochondrial membrane potential on the basis of the fluorescent intensity of TMRM to check the state of survival of the stem cells; the results are shown in FIG. 7. […] In addition, the TMRM-stained cells were photographed, both for the case of 2-h treatment with mannitol and for the control (FIG. 8)). […] Changes in the mitochondrial membrane potential were observed using the experimental technique of Example 5, provided that the human embryonic stem cells were treated not with mannitol, but with 0.45 M of various other saccharides (sugar alcohols: sorbitol and xylitol; sugars: sucrose and glucose; betaines: trimethylglycine) (approximately equivalent to 750-780 mOsm/kg) for 2 hours.

[3] = test system: human induced pluripotent stem cells (iPS cells); test: Cell death inducing effect on human induced pluripotent stem cells (TMRM, FACS); type: cell-based; settings: 0.45 M, 2 hours
Method: The human iPS cells were obtained from Stem Cell Research Center, Institute for Frontier Medical Sciences, Kyoto University (ES cell center sponsored by the National Bio-Resource Project). The cells were cultured basically in accordance with the same method as that in the case of human embryonic stem cells, i.e., in accordance with the same method as described in Example 5. After passaging, the cells were dispersed with each other using TE (0.25% trypsin (GIBCO) and 1 mM EDTA) and in accordance with a published document (Watanabe, K. et al., Nat. Biotechnol., 2007, 25: 681-686, Epub 2007 May 27), 10 μM of a ROCK inhibitor (Y27632) was added to suppress cell death. At the same time, the mitochondria in the live cells were stained with 50 nM TMRM. […] In the control, cells were aggregated with each other to make masses, so before FACS analysis, both samples were given another treatment with trypsin and EDTA to disperse the cells; thereafter, the samples were analyzed by FACS for the level of mitochondrial membrane potential on the basis of the fluorescent intensity of TMRM to check the state of survival of the stem cells; the results are shown in FIG. 12. […]

[4] = test system: cardiomyocyte containing mouse embryoid bodies; test: Low-concentration mannitol treatment of cardiomyocyte containing mouse embryoid bodies; type: cell-based; settings: 0.2 M, 72 hours
Method: Additionally, similar to the method described in Example 1, 75 mouse embryonic stem cells per EB were cultured as cell masses for a total of 7 days by the hanging-drop technique using a culture medium [α-MEM (minimum essential medium) (SIGMA), supplemented with 10% FBS (EQUITEC BIO), 100 units/ml penicillin, and 50 μg/ml streptomycin (GIBCO)], whereby the stem cells were differentiated into cell masses containing cardiomyocytes; thereafter, the embryoid bodies were adhered to the culture dish and cultured for another 3-5 days under the conditions of 37° C. and 5% CO2.

[5] = test system: embryonic stem cells; test: Study of mannitol concentration and duration of exposure versus cell death of embryonic stem cells; type: cell-based; settings: 1M (substantially saturated concentration)
From the text: The present inventors prepared hypertonic solutions containing mannitol dissolved in it at high concentrations and applied those hypertonic solutions to a mixed cell system comprising embryonic stem cells as well as cardiomyocytes and non-cardiomyocytes; they found the fact that upon exposure to the hypertonic solutions, the embryonic stem cells and non-cardiomyocytes were more likely to undergo cell death.

OC[C@@H](O)[C@@H](O)[C@H](O)[C@H](O)CO [mannitol]
Osmotic pressure ([1]; saccharide concentration 0.2 M in culture medium): ~480 mOsm/kg | Osmotic pressure ([1]; saccharide concentration 0.45 M in culture medium): ~720 mOsm/kg | Osmotic pressure ([1]; saccharide concentration 0.45 M in culture medium, listed as Mannitol): 717 mOsm/kg | Osmotic pressure ([1]; saccharide concentration 0.6 M in culture medium): 875 mOsm/kg | Osmotic pressure ([1]; saccharide concentration 0.9 M in culture medium): 1234 mOsm/kg | Mitochondrial membrane potential (TMRM fluorescence, FACS) ([2]; 2 hours): almost all of the cells treated with mannitol for 2 hours had lost membrane potential | Self-aggregation of cells immediately after treatment ([2]; 2 hours, photographs of TMRM-stained cells): remained dispersed | Survival after adherent culture for 5 days ([2]; then 5 days adherent culture): none of the cells exposed to mannitol were found live | Mitochondrial membrane potential (TMRM fluorescence, FACS) [3]: almost all of the cells treated with mannitol for 2 hours had lost membrane potential | State of cells other than cardiomyocytes and of cardiomyocytes [4]: almost all cells other than cardiomyocytes had died and only the cardiomyocytes survived selectively | Cell death in embryonic stem cells [5]: induced cell death in embryonic stem cells within a short period of time
